This note sets out measurements from US6946480B2, “Glutaminyl based DPIV inhibitors” (priority 2002, dated 2005).

“Also recorded” adds a separate entry of the source.

A short description of data set [1]: Plasma stability (half-life of inhibitory potency in human plasma). It counts as in vitro ADME. On the procedure: In order to investigate the stability of glutaminyl pyrrolidine or glutaminyl thiazolidine in human plasma, the activity of DPIV in plasma was determined at a defined time. The average DPIV activity in human plasma was determined as 43.69 U/ml. In the working solution, the plasma was diluted in 0.9% NaCl to fix the DPIV activity level at 25 U/ml.
Plasma and glutaminyl pyrrolidine or glutaminyl thiazolidine in different concentrations (5*10^−5, 2.5*10^−5, 1.25*10^−5M in plasma) were incubated at 37° C. At defined time points samples were taken using a pipette roboter (Gilson 215, Liquid handler, Gilson) and transferred in a microtiter plate containing 5*10^−5M glycylprolylaminomethylcoumarine in 0.9% NaCl+015% Brij per well. After 6 min the reaction was stopped by addition of isoleucylthiazolidine (5*10^−5M in 0.9% NaCl solution).
Fluorescence measurement was performed against 0.9% NaCl in plasma (reference standard) using a plate reader (HTS7000plus, Applied Biosystems, Weiterstadt, Germany). The half-life of the inhibitory potency of glutaminyl pyrrolidine or glutaminyl thiazolidine was calculated by plotting the enzyme activity versus reaction time.

A short description of data set [2]: In vivo inactivation (degradation) after oral administration to Wistar rats, LC/MS. The settings on record: LC/MS of plasma. The protocol:
Glutaminyl thiazolidine was administered to Wistar rats orally as described in example 9.
After application of placebo or glutaminyl thiazolidine, arterial blood samples were taken at 2.5, 5, 7.5, 10, 15, 20, 40, 60 and 120 min from the carotid catheter of the conscious unrestrained rats to determine the formation of degradation products of glutaminyl thiazolidine.
For analysis, simple solid phase extraction procedure on C18 cartridges was used to isolate the compounds of interest from the plasma. The extracts were analysed using reversed-phase liquid chromatography on Lichrospher 60 RP Select B column hyphenated with tandem mass spectrometry operating in the APCl positive mode. An internal standard method was used for quantification.

The mark [3] stands for this setting: listed as Glutaminyl thiazolidine.

For `NC(=O)CCC(N)C(=O)N1CCSC1` (stereo not drawn) [glutaminyl thiazolidine], the “half-life of the inhibitory potency in human plasma” value in data set [1] (37° C., 5*10^−5, 2.5*10^−5, 1.25*10^−5M) is “no half-time could be determined”. The “stability in human plasma” value in data set [1] (over 22 hours) is given as “stable in human plasma over 22 hours”. In addition, in data set [2], the degradation in vivo entry is recorded as “a degradation of the compound was found” and the “degradation product found in vivo” value was “pyroglutaminyl thiazolidine; also recorded: pyroglutamyl thiazolidine”. Further, in data set [2] (setting [3]), the degradation in vivo entry is recorded as “degraded” and the “degradation product found in vivo” value was “pyroglutaminyl thiazolidine”.
